This note sets out measurements from the supplement of paper PMC9763283.

Common to all, as to experiment: area under growth-rate inhibition curve (AUC GRI) (dimensionless (GR-based AUC)); higher = less growth inhibition
What all share (settings): exposure time: 72 h; concentrations: 0.1, 1, 10 uM

One experiment has as its system BT474-LTR. In short, it runs like this:
(§1)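 Nuclear counts from Hoechst 33342- or DAPI-stained images were used to estimate the area under the growth-rate inhibition curve, with growth corrected by reference to untreated and DMSO-treated plates and starting plates. The six breast cancer cell line models, comprising two triple-negative lines and parental and drug-combination-resistant HER2+ lines, were treated with compound at 0.1, 1 or 10 µM for 72 h. Data came from 2 biological replicates, using Day 0 and Day 3 plates.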

The next experiment has as its system BT474-P. In short, it runs like this:
as §1

A further experiment concerns MDA-MB-231. The procedure, abridged:
as §1

A further experiment relates to MDA-MB-468. In short, it runs like this: as §1
The test system of the next experiment is SKBR3-LTR. In short, it runs like this:
as §1

For the next experiment, the system named is SKBR3-P. The procedure, abridged: as §1

As for `[Cl-].[H+].c1ccc(CN(CC2=NCCN2)c2ccccc2)cc1` [Antazoline hydrochloride], the “area under growth-rate inhibition curve” value in the experiment on BT474-LTR came to 1.05; with BT474-P, 1.01; in the experiment on MDA-MB-231 it was 1.03; in the experiment with MDA-MB-468 it was 1.04; in the experiment with SKBR3-LTR, 1.05; with SKBR3-P, 1.03.

Regarding `Cc1ccc(/C(=C\CN2CCCC2)c2ccccn2)cc1.Cl` [trans-Triprolidine hydrochloride], the “area under growth-rate inhibition curve” value was 1.05 in the experiment on BT474-LTR; 1.03 in the experiment with BT474-P; 1.03 with MDA-MB-231; 1.03 in the experiment with MDA-MB-468; 1.05 with SKBR3-LTR; 1.03 in the experiment on SKBR3-P.

Take `CCc1c(C(=O)NCCc2ccc(N3CCCCC3)cc2)[nH]c2ccc(Cl)cc12`: the “area under growth-rate inhibition curve” value in the experiment on BT474-LTR came out at 1.06; in the experiment with BT474-P, 1.04; with MDA-MB-231, 1.02; in the experiment on MDA-MB-468 it was 0.994; in the experiment on SKBR3-LTR it was 1.09; in the experiment with SKBR3-P it was 0.994.

`c1ccc(NCc2ccc(CNc3ccccn3)cc2)nc1` [WZ811]: the “area under growth-rate inhibition curve” value in the experiment on BT474-LTR was found to be 1.08; in the experiment with BT474-P, 1.02; with MDA-MB-231, 1.02; with MDA-MB-468 it was 1.04; with SKBR3-LTR it was 1.04; in the experiment with SKBR3-P it was 1.01.

On to `CN(C)CC(c1ccc(O)cc1)C1(O)CCCCC1` (stereo unspecified) [Desvenlafaxine], for which the “area under growth-rate inhibition curve” value in the experiment with BT474-LTR amounted to 1.07; in the experiment with BT474-P it was 1.03; in the experiment with MDA-MB-231 it was 1; with MDA-MB-468 it was 1.03; with SKBR3-LTR, 1.05; with SKBR3-P, 1.

`CNCc1ccc(C)c(NC(=O)c2ccc(Nc3nc(-c4ccccc4)c4ccccc4n3)cc2)c1`: the “area under growth-rate inhibition curve” value in the experiment with BT474-LTR was found to be 1.08; in the experiment with BT474-P it was 0.853; in the experiment with MDA-MB-231 it was 0.877; in the experiment on MDA-MB-468, 0.856; with SKBR3-LTR, 0.914; in the experiment with SKBR3-P, 0.876.

Consider `Nc1nc(NCCc2ccc(O)cc2)nc2nc(-c3ccco3)nn12`, for which the “area under growth-rate inhibition curve” value amounted to 1.03 with BT474-LTR; 1.01 in the experiment on BT474-P; 1.03 in the experiment with MDA-MB-231; 0.973 in the experiment on MDA-MB-468; 0.956 in the experiment with SKBR3-LTR; 0.822 with SKBR3-P.

Turning to `CC(=O)SCC(Cc1ccccc1)C(=O)NCC(=O)OCc1ccccc1` (stereo unspecified) [Racecadotril], the “area under growth-rate inhibition curve” value came to 1.07 with BT474-LTR; 1.04 in the experiment with BT474-P; 1.02 in the experiment with MDA-MB-231; 1.02 in the experiment on MDA-MB-468; 1.08 in the experiment with SKBR3-LTR; 1.01 with SKBR3-P.

Turning to `C[C@H](Cc1cc2c(c(C(N)=O)c1)N(CCCO)CC2)NCCOc1ccccc1OCC(F)(F)F` [Silodosin], the “area under growth-rate inhibition curve” value in the experiment on BT474-LTR came out at 1.1; in the experiment with BT474-P, 1.06; in the experiment on MDA-MB-231, 1.04; in the experiment with MDA-MB-468, 1.05; in the experiment on SKBR3-LTR, 1.1; with SKBR3-P, 1.03.

As for `O=C(CS(=O)Cc1ccco1)NC/C=C\COc1cc(CN2CCCCC2)ccn1` (stereo unspecified) [Lafutidine], the “area under growth-rate inhibition curve” value with BT474-LTR is 1.1; in the experiment on BT474-P, 1.02; in the experiment on MDA-MB-231, 1.03; in the experiment on MDA-MB-468, 1.02; in the experiment with SKBR3-LTR it was 1.06; in the experiment on SKBR3-P, 0.987.

On to `CN1CCN(C2=Nc3ccccc3Oc3ccc(Cl)cc32)CC1` [Loxapine], for which the “area under growth-rate inhibition curve” value in the experiment on BT474-LTR amounted to 1.03; in the experiment with BT474-P, 0.995; with MDA-MB-231, 1.04; with MDA-MB-468 it was 1.03; in the experiment with SKBR3-LTR, 1.06; in the experiment on SKBR3-P, 1.02.
